The target of one test is mutant ALS protein (Oryza sativa subsp. japonica, UniProt Q6K2E8, S627I/W548L). Put plainly: Herbicide sensitivity of crude mutant ALS (W548L and S627I) expressed in E. coli, in presence of valine. As to conditions: crude enzyme from E. coli, valine added. Also on record: the cDNA containing a full length mutant ALS gene could be obtained; made in house; host or cells: E. coli JM 105, pGEX-4T-3; crude enzyme solution. Format: biochemical, rice. The protocol: Preparation and purification of ALS from E. coli were performed by the following method. First, a pellet of the transformant E. coli stored at −80° C. was suspended in ALS extraction buffer (potassium phosphate buffer (pH 7.5) containing 30% glycerol and 0.5 mM MgCl2). Specifically, 2.5 ml of the buffer was added to the pellet obtained from 50 ml of the culture solution. The suspension was subjected to ultrasonication (Heat Systems-Ultrasonics, Sonicator W-225R, micro chip, output control 8, interval of approximately 1 sec, twice (40 sec each)), and subjected to centrifugation at 15000×g, 4° C. for 20 min, thereby obtaining the supernatant as a crude enzyme solution.
Sequence of mutant ALS protein (Q6K2E8 44-644 W548L/S627I): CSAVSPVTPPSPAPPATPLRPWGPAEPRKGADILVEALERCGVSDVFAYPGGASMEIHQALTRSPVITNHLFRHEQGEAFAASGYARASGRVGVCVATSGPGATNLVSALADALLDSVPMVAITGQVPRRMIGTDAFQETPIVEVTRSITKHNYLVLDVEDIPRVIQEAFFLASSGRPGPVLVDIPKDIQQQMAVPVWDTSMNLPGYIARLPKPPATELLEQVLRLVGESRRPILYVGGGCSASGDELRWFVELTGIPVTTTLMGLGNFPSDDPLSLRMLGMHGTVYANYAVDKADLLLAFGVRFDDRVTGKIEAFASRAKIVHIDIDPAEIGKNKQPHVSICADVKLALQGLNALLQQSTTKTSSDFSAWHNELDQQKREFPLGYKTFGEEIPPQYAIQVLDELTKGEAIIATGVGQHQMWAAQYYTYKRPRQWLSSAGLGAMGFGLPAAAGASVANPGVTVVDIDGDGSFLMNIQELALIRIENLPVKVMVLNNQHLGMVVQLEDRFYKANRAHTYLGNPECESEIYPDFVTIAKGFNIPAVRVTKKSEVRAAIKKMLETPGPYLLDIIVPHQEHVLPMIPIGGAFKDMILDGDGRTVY
Herbicide sensitivity of mutant ALS protein was examined using the crude enzyme solution obtained in Example 4. Herbicide sensitivity test was performed in the manner same as that in Example 2. In the herbicide sensitivity test, three herbicides, bispyribac-sodium, pyrithiobac-sodium, and pyriminobac were used as PC herbicides; four drugs, chlorsulfuron, bensulfuron-methyl, pyrazosulfuron-ethyl and imazosulfuron were used as sulfonylurea herbicides; and two drugs, imazaquin, and imazapyr were used as imidazolinon herbicides.
Solutions containing these herbicides at certain concentrations (bispyribac-sodium and pyrithiobac-sodium were aqueous solutions, others were acetone solutions) were added to reaction solutions before addition of the mutant ALS protein. The final concentration of acetone was 1%. In addition, since an ALS protein from the rice cDNA expressed within E. coli is insusceptible to valine (Kil et al., J. Biochem. Mol. Biol. 31 287–295, 1998), a herbicide sensitivity test was performed under conditions in which ALS activity derived from E. coli was inhibited with valine.

A further test concerns the target T1, S627I mutant ALS (Oryza sativa subsp. japonica, UniProt Q6K2E8, S627I).
T1 construct: one type of cDNA containing a full length ALS gene could be obtained from a cDNA library derived from the wild type; made in house; host or cells: E. coli JM 109, pGEX-2T backbone; crude enzyme solution
Put plainly: Herbicide sensitivity of crude ALS with S627I mutation only, 1 mM valine. The format is biochemical, rice. Particulars: crude enzyme. The protocol:
A plasmid having W548L mutant ALS gene or a plasmid having S627I mutant ALS gene was transformed into E. coli strain JM 109. The colonies obtained from transformation were subjected to liquid culture, expression of GST induction protein was induced in the same manner as in Examples 4 and 5, a crude enzyme solution was prepared, and then herbicide sensitivity of ALS was examined in the presence of 1 mM valine.

Test [1] relates to wild type (Kinmaze) culture cells. Put plainly: Growth of wild type rice (Kinmaze) culture cells in liquid medium with herbicide (relative wet weight). Format: cell-based, Oryza sativa var. Kinmaze. As to the method:
Approximately 1.5 g (wet weight) of the resistant mutant was transplanted in 200 ml of a Erlenmeyer flask supplemented with 50 ml of a MS-2,4-D liquid medium and bispyribac-sodium at an appropriate concentration, followed by culturing at approximately 27° C. for an appropriate period. The wet weight of the callus was measured periodically. The relative amount of increase was determined based on the wet weight of the transplanted resistant mutant. In addition, the experiment was performed three times with different bispyribac-sodium concentrations, and the standard error was calculated. […] As a control, a similar experiment was conducted using the wild type (Kinmaze).
The growth rates of the wild type and the resistant mutant were measured as described above except for the use of chlorsulfuron instead of bispyribac-sodium.

Molecules are shown by their SMILES.

T1 sequence (Q6K2E8 44-644 S627I): as the sequence (Q6K2E8 44-644 W548L/S627I) above, with L505W counted along it

On to `COc1cc(OC)nc(Oc2cccc(Oc3nc(OC)cc(OC)n3)c2C(=O)[O-])n1.[Na+]` [Bispyribac-sodium, bispyribac-sodium], for which, on mutant ALS protein, the “mutant ALS activity in the presence of herbicide” value is on record as “not inhibited at all” and the “resistance of the mutant ALS protein to herbicide compared to wild type ALS protein” value is reported as “best resistance”. The “resistance imparted by S627I mutation alone” value on S627I mutant ALS is given as “imparted resistance”. In addition, the “growth of the wild type (relative weight on day 8)” value in test [1] (1 nM bispyribac-sodium) is reported as “not inhibited”. The “growth of the wild type (relative weight on day 8)” value in test [1] (10 nM or more bispyribac-sodium) is on record as “inhibited”.
On to `COc1nc(C)nc(NC(=O)NS(=O)(=O)c2ccccc2Cl)n1` [Chlorsulfuron, chlorsulfuron], for which the “resistance of the mutant ALS protein to herbicide compared to wild type ALS protein” value on mutant ALS protein was “moderate”. Moreover, the “resistance imparted by S627I mutation alone” value on S627I mutant ALS is “imparted no obvious resistance”. For the same compound, in test [1] (1 nM chlorsulfuron), the “growth of the wild type (relative weight on day 9)” value is “inhibited”.

For the origin of these results see patent US7119256B2, “Gene encoding acetolactate synthase” (priority 2000, dated 2006).
